# Experimental data taken from patent US20240360153A1 (Regeneron Pharmaceuticals, Inc., priority 2023, published 2024).
# What was measured:
# [1] = system: S6K1 (Thr389) phosphorylation (mTORC1 activity) in wild-type (WT) 293T cells; assay: Inhibition of S6K1 (Thr389) phosphorylation in wild-type 293T cells (ELISA); type: cell-based, human; conditions: for IC50: Homo sapiens, HEK-293T, 2 h, wild-type 293T cells, 2 hours treatment; for fold lower potency compared with RAD001 (by IC50) / extent of inhibition of S6K1 (Thr389) phosphorylation: wild-type cells; for extent of inhibition of S6K1 (Thr389) phosphorylation: with increasing concentrations
# How it was run: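 WT 293T cells in DMEM + 10% FBS, grown 24 h to ~80% confluence, then treated 2 h at 37 °C in duplicate with compounds over an 8–11-point range from 0.001 pM to 10 μM. DMSO vehicle served as negative control. Phospho-S6K1 (Thr389) measured by ELISA.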
# [2] = system: S6K1 (Thr389) phosphorylation (mTORC1 activity) in FKBP12 knock-out 293T cells; assay: Inhibition of S6K1 (Thr389) phosphorylation in FKBP12 knock-out 293T cells (ELISA); type: cell-based, human; conditions: for selectivity for FKBP12 compared with RAD001 (in words): wild-type versus FKBP12 knock-out cells
# How it was run: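 CRISPR-generated FKBP12 knock-out HEK293T cells, alongside wild-type, were treated in duplicate for 2 hours at 37 °C with an 8–11-point dose range (0.001 pM–10 μM). Phospho-S6K1 Thr389 quantified by ELISA as an mTORC1 activity read-out, with DMSO as negative control.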
# [3] = In vitro microsomal metabolic stability, CD-1 mouse liver microsomes; type: in vitro ADME; conditions: for CLint scaled at 1 µM / microsomal CLint at 1 µM: CD-1, mouse, mouse liver microsomes, pH 7.2; for half-life at 1 µM: CD-1, pH 7.2, 0.5 mg/ml protein, NADPH; for half-life at 1 µM / Remaining (T = 60 min) / Remaining (T = NCF60 min): Mouse liver microsomes; for Remaining (T = 60 min): with NADPH; for Remaining (T = NCF60 min): without NADPH regenerating system; for Remaining (T = 60 min) / Remaining (T = NCF60 min): 60 min
# How it was run: (§1)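 Compounds at 1 μM incubated at 37° C with pooled CD-1 mouse or human liver microsomes (0.5 mg/mL protein) plus NADPH regenerating system in 50 mM potassium phosphate, pH 7.2, 3.3 mM MgCl2; sampled at 0–60 min, 60-min no-NADPH control. Parent loss by LC/MS/MS analyte/IS peak-area ratio, n=1.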
# [4] = In vitro microsomal metabolic stability, human liver microsomes; type: in vitro ADME; conditions: for Remaining (T = 60 min) / Remaining (T = NCF60 min) / half-life at 1 µM: Human liver microsomes; for Remaining (T = 60 min): with NADPH; for Remaining (T = NCF60 min): without NADPH regenerating system; for Remaining (T = 60 min) / Remaining (T = NCF60 min): 60 min; for CLint scaled at 1 µM / microsomal CLint at 1 µM: human, human liver microsomes; for CLint scaled at 1 µM / microsomal CLint at 1 µM / half-life at 1 µM: pH 7.2; for half-life at 1 µM: 0.5 mg/ml protein, NADPH
# How it was run: as §1
SMILES,IC50 [1],fold lower potency compared with RAD001 (by IC50) [1],extent of inhibition of S6K1 (Thr389) phosphorylation [1],inhibition of S6K1 (Thr389) phosphorylation in the absence of FKBP12 (in words) ([2]; FKBP12 knock-out cells),"inhibition at 1 µM ([2]; Homo sapiens, HEK-293T, FKBP12 knock-out cells, 1 μM)",selectivity for FKBP12 compared with RAD001 (in words) [2],CLint scaled at 1 µM [3],microsomal CLint at 1 µM [3],half-life at 1 µM [3],Remaining (T = 60 min) [3],Remaining (T = NCF60 min) [3],Remaining (T = 60 min) [4],Remaining (T = NCF60 min) [4],CLint scaled at 1 µM [4],microsomal CLint at 1 µM [4],half-life at 1 µM [4]
"CO[C@@H]1C[C@H](C[C@@H](C)[C@@H]2CC[C@H](C)/C=C(\C)[C@@H](O)[C@@H](OC)C(=O)[C@H](C)C[C@H](C)/C=C/C=C/C=C(\C)C(NS(=O)(=O)c3cnoc3C)C[C@@H]3CC[C@@H](C)[C@@](O)(O3)C(=O)C(=O)N3CCCCC3C(=O)O2)CC[C@H]1O (stereo partly drawn) [Compound 51, N-((3S,6S,7E,9R,10R,12R,14S,15E,17E,19E,23S,26R,27R,34aS)-9,27-dihydroxy-3-((R)-1-((1S,3R,4R)-4-hydroxy-3-methoxycyclohexyl)propan-2-yl)-10-methoxy-6,8,12,14,20,26-hexamethyl-1,11,28,29-tetraoxo-1,4,5,6,9,10,11,12,13,14,21,22,23,24,25,26,27,28,29,31,32,33,34,34a-tetracosahydro-3H-23,27-epoxypyrido[2,1-c][1]oxa[4]azacyclohentriacontin-21-yl)-5-methylisoxazole-4-sulfonamide]",4.53 nM,12 fold,near complete inhibition,no further inhibition at 10 μM,18%,not completely selective to FKBP12,255 mL/min/kg,64.3 µL/min/mg,0.358 h,15%,85%,0.20%,89%,182 mL/min/kg,202 µL/min/mg,0.114 h
"CO[C@@H]1C[C@H](C[C@@H](C)[C@@H]2CC[C@H](C)/C=C(\C)[C@@H](O)[C@@H](OC)C(=O)[C@H](C)C[C@H](C)/C=C/C=C/C=C(\C)C(Nc3cccc(OC(F)(F)F)c3)C[C@@H]3CC[C@@H](C)[C@@](O)(O3)C(=O)C(=O)N3CCCCC3C(=O)O2)CC[C@H]1O (stereo partly drawn) [Compound 58, (3S,6S,7E,9R,10R,12R,14S,15E,17E,19E,23S,26R,27R,34aS)-9,27-dihydroxy-3-((R)-1-((1S,3R,4R)-4-hydroxy-3-methoxycyclohexyl)propan-2-yl)-10-methoxy-6,8,12,14,20,26-hexamethyl-21-((3-(trifluoromethoxy)phenyl)amino)-5,6,9,10,12,13,14,21,22,23,24,25,26,27,32,33,34,34a-octadecahydro-3H-23,27-epoxypyrido[2,1-c][1]oxa[4]azacyclohentriacontine-1,11,28,29(4H,31H)-tetraone]",2.94 nM,35 fold,near complete inhibition,inhibited the mTORC1 signaling in a dose dependent manner,,relatively not FKBP12 selective,25.3 mL/min/kg,6.4 µL/min/mg,3.62 h,83%,96%,55%,93%,18 mL/min/kg,20 µL/min/mg,1.16 h
"CCOc1cccc(NC2C[C@@H]3CC[C@@H](C)[C@@](O)(O3)C(=O)C(=O)N3CCCCC3C(=O)O[C@H]([C@H](C)C[C@@H]3CC[C@@H](O)[C@H](OC)C3)CC[C@H](C)/C=C(\C)[C@@H](O)[C@@H](OC)C(=O)[C@H](C)C[C@H](C)/C=C/C=C/C=C/2C)c1 (stereo partly drawn) [Compound 59, (3S,6S,7E,9R,10R,12R,14S,15E,17E,19E,23S,26R,27R,34aS)-21-((3-ethoxyphenyl)amino)-9,27-dihydroxy-3-((R)-1-((1S,3R,4R)-4-hydroxy-3-methoxycyclohexyl)propan-2-yl)-10-methoxy-6,8,12,14,20,26-hexamethyl-5,6,9,10,12,13,14,21,22,23,24,25,26,27,32,33,34,34a-octadecahydro-3H-23,27-epoxypyrido[2,1-c][1]oxa[4]azacyclohentriacontine-1,11,28,29(4H,31H)-tetraone]",0.17 nM,2 fold,near complete inhibition,inhibited the mTORC1 signaling in a dose dependent manner,,relatively not FKBP12 selective,40.8 mL/min/kg,10.3 µL/min/mg,2.25 h,76%,112%,47%,102%,22.2 mL/min/kg,24.7 µL/min/mg,0.937 h
